Reference: patent US6372772B1, “Inhibitors of redox signaling and methods of using same” (Prolx Pharmaceuticals Corporation, priority 1997, dated 2002)
Converted amounts (≈) assume the structure as drawn. Read-outs that look alike come from different tables or passages of the source.

Experiments:
[1] = target: T1, thioredoxin reductase/thioredoxin (Homo sapiens, UniProt Q16881); assay: thioredoxin reductase/thioredoxin-dependent insulin reduction assay; format: biochemical
T1 sequence (Q16881 1-499 isoform Q16881-5): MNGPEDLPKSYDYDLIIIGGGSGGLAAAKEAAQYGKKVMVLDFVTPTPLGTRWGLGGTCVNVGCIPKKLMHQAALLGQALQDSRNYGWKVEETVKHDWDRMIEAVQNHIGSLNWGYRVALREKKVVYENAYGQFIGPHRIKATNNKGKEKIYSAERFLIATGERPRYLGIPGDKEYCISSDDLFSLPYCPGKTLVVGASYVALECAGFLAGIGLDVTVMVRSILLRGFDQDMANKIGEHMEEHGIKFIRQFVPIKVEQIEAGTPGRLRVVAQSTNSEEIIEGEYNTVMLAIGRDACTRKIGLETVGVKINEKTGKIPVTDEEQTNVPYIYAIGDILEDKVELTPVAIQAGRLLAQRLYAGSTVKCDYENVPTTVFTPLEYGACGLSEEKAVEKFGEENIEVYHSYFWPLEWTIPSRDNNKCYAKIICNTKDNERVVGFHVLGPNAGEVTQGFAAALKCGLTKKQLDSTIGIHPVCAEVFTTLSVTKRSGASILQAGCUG

[2] = tested on: HL-60 leukemia; assay: HL-60 leukemia xenografts in scid mice; format: in vivo; details: for antitumor activity against HL-60 leukemia: a number of the animals without tumor at day 45
[3] = tested on: human MCF-7 breast cancer; assay: MCF-7 breast cancer xenografts in scid mice; format: in vivo; details: for tumor inhibition: MCF-7 tumor system
[4] = tested on: tumors in the colon; assay: min (multiple intestinal neoplasia) mouse chemoprevention; format: in vivo; details: in the diet at 250 ppm
Text: The min mouse has a germline mutation in the APC gene seen in human familial adenomatous polyposis (FAP). This model was chosen because of its genetic basis and as an alternative to chemically-induced models of colon cancer. The majority of the tumors that develops in the adult min mice are in the small intestine, although tumors are first diagnosed in the colon. FAP represents a high risk group of subjects with a readily identifiable early end-point marker that is suitable for trials of novel chemopreventive agents.

[5] = tested on: thioredoxin-dependent cell proliferation; assay: thioredoxin- versus serum-dependent cell proliferation in culture; format: cell-based
[6] = tested on: leukemia cell line; details: cited from earlier work
[7] = tested on: NCI's panel of 60 human cancer cell lines; details: cited from earlier work
[8] = target: T2, thioredoxin reductase (Homo sapiens, UniProt Q16881); assay: biochemical
T2 sequence (Q16881 1-499 isoform Q16881-5): T1 sequence (Q16881 1-499 isoform Q16881-5)

[9] = target: T3, glutathione reductase (Homo sapiens, UniProt P00390); assay: glutathione reductase assay (DTNB reduction); format: biochemical
T3 sequence (P00390 1-479 isoform P00390-2): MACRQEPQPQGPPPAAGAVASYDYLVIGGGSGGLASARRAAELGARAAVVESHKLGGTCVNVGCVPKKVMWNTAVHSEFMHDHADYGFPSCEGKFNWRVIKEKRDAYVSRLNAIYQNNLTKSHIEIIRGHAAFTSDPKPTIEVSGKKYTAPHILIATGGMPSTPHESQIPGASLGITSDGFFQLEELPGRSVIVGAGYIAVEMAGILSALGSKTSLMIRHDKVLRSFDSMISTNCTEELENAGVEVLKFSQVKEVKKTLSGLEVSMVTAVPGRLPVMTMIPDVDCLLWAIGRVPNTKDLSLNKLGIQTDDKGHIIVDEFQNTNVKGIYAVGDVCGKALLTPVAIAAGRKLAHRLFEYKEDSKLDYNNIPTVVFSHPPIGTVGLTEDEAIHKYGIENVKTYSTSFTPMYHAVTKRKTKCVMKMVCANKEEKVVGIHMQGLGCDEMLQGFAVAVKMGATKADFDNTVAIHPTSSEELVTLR

[10] = tested on: MCF-7 breast cancer cells; details: read-out: EC50 for thioredoxin growth stimulation; cited from earlier work
[11] = Table III, read-out: in vitro IC50 TR/Trx (μg/ml) (converted)
[12] = Table I, 30 min preincubation, read-out: IC50 (μg/ml) in TR/Trx Assay (converted)
[13] = Table II, read-out: IC50TRTrx (μg/ml) (converted)
[14] = ratio of IC50 TR alone and IC50 TR/Trx assay
[15] = mean 50% growth inhibition concentration, leukemias
[16] = mean 50% growth inhibition concentration, entire cell line panel
[17] = Table II, read-out: IC50GR (μg/ml) (converted)

Compound	IC50 [1, 11] [nM]	IC50 [1, 12] [nM]	IC50 [1, 13] [nM]	TR/TRTrx [1, 14]	GI50 (μg/ml) Leukemias [6, 15] [µg/mL]	GI50 (μg/ml) All Tumors [7, 16] [µg/mL]	IC50 [9, 17] [nM]	other results
c1ccc(CSSc2ncc[nH]2)cc1 [DLK-36, benzyl-2-imidazolyl disulfide]	180000	–	–	–	–	–	–	antitumor activity against HL-60 leukemia [2]: showed antitumor activity; T/C % tumor volume at day 28 ([3]; 25 mg/kg/day for 14 days): 100.7%; T/C % tumor volume at day 28 ([3]; 40 mg/kg/day for 14 days): 23.7%; tumor inhibition [3]: 65%
CCC(C)SSc1ncc[nH]1 (centres unmarked) [IV-2, 1-methylpropyl 2-imidazolyl disulfide]	–	–	–	–	–	–	–	size of remaining tumors ([4]; p<0.001 compared to control): significant reduction in the size of remaining tumors; reduction of number of tumors in the colon ([4]; p=0.0160): 70%; antitumor activity against HL-60 xenografts [2]: dose-dependent antitumor activity; antitumor activity against HL-60 leukemia [2]: showed antitumor activity; inhibition of thioredoxin- versus serum-dependent cell proliferation [5]: greater inhibition of thioredoxin than serum-dependent cell proliferation; T/C % tumor volume at day 28 ([3]; 5 mg/kg/day for 14 days): 56.7%; T/C % tumor volume at day 28 ([3]; 10 mg/kg/day for 14 days): 45.9%; T/C % tumor volume at day 28 ([3]; 15 mg/kg/day for 14 days): 2.3%; tumor inhibition [3]: 98%; antitumor activity against MCF-7 xenografts ([3]; scid mice): dose-dependent antitumor activity
CCCC(=O)OC1C2C(CC1(C)C)C(=O)C13OC1C(=O)C1(CO1)C23C (centres unmarked) [NSC 163027]	≤ 1440	1090	1090	13.2	0.6 (≈ 1.72 µM)	3.1 (≈ 8.9 µM)	115000	IC50 [8]: 14400 nM
Cc1cc2c(c(O)c1-c1c(C)cc(O)c3c1C(=O)C=CC3=O)C(=O)C=CC2=O [NSC 208731]	≤ 267	267	267	1.0	0.03 (≈ 0.0801 µM)	0.6 (≈ 1.6 µM)	13400	–
C=C(CN(C)C)C(=O)c1ccc(C)cc1C [NSC 382000]	≤ 460	460	460	1.0	0.1 (≈ 0.46 µM)	1.0 (≈ 4.6 µM)	13800	–
CC1COC2C3=C(C(=O)C=CC3=O)C3OC(=O)C4CCC5CC1CCC52C43 (centres unmarked) [NSC 401005]	≤ 271	163	163	1.7	1.8 (≈ 4.89 µM)	7.6 (≈ 20.6 µM)	40700	–
CC(C)(CN1C(=O)C(Cl)=C(Cl)C1=O)CN1C(=O)C(Cl)=C(Cl)C1=O [NSC 617145]	–	–	–	0.8	0.2 (≈ 0.5 µM)	4.4 (≈ 11 µM)	–	IC50 ([1]; IC50 (μg/ml) in TR/Trx Assay): 300 nM; IC50 ([1]; IC50TRTrx (μg/ml)): 300 nM; IC50 ([1]; in vitro IC50 TR/Trx (μg/ml)): ≤ 1250 nM; IC50 [9]: 125000 nM
CCc1cccc(CC)c1NC(=O)/C(Cl)=C(/Cl)C(=O)O [NSC 618605]	≤ 1580	380	380	0.8	2.5 (≈ 7.91 µM)	7.2 (≈ 22.8 µM)	108000	–
COC(=O)C(CBr)CBr [NSC 620109]	–	–	–	–	–	–	–	TR/TRTrx [1]: 0.3; IC50 ([1]; read-out: IC50 (μg/ml) in TR/Trx Assay (converted)): 1230 nM; IC50 ([1]; read-out: IC50TRTrx (μg/ml) (converted)): 1230 nM; IC50 ([1]; read-out: in vitro IC50 TR/Trx (μg/ml) (converted)): ≤ 1920 nM; GI50 (μg/ml) Leukemias [6]: 0.2 µg/mL (≈ 0.769 µM); GI50 (μg/ml) All Tumors [7]: 1.1 µg/mL (≈ 4.23 µM); IC50 ([9]; read-out: IC50GR (μg/ml) (converted)): 127000 nM
Cc1ccc(NC(=O)/C(Cl)=C(/Cl)C(=O)O)cc1 [NSC 622378]	≤ 1820	438	438	0.8	1.6 (≈ 5.84 µM)	5.0 (≈ 18.2 µM)	73000	–
Cc1cccc2c1c1ccc3c(c1n2C)C(=O)C=CC3=O [NSC 645330]	≤ 18200	6900	6870	26.5	0.3 (≈ 1.09 µM)	1.5 (≈ 5.45 µM)	182000	IC50 [8]: 182000 nM
O=[N+]([O-])C(=C(Sc1ccccc1)Sc1ccccc1)C(Cl)=C(Cl)Cl [NSC 665103]	≤ 239	239	239	50.0	0.04 (≈ 0.0955 µM)	0.4 (≈ 0.955 µM)	76400	IC50 [8]: 11900 nM
thioredoxin	–	–	–	–	–	–	–	EC50 [10]: 350 nM
